Data as given in ChEMBL document CHEMBL1201862, “PubChem BioAssay data set” (2004).
Calls of active or inactive are those of the source.

Columns and labels:
cells = type: functional
Beta Lactamase = Beta Lactamase (Pseudomonas aeruginosa, UniProt Q932Y6); assay: BLA reporter interference, concentration series – BLA reporter cells, FRET fluorescence, artefact control for TLR9-MyD88 binding inhibitor project, dose response (AID 588341); type: cell-based;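 also: cell based assay in CHO-K1 cells stably expressing beta-lactamase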
[1] = Luminescence Cell-Based Dose Response HTS to Identify Activators of Luciferase Translation or Activity in H4 […] Cells. [Related pubchem assays: 1829 (Project Summary), 1814 (Primary HTS)]; type: functional
[2] = biological target: Bifunctional protein GlmU (Mycobacterium tuberculosis, UniProt P9WMN3); assay: Inhibitors of Mycobacterial Glucosamine-1-phosphate acetyl transferase (GlmU). Secondary screen.; design: species or system Mycobacterium tuberculosis H37Rv
[3] = biological target: Heat shock protein HSP 90-alpha (Homo sapiens, UniProt P07900); type: functional, organism-based
Caspase-3 = biological target: T1, Caspase-3 (Homo sapiens, UniProt P42574); type: functional;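 also: Dose-response selectivity test against caspase-3 for candidate inhibitors of sentrin-specific proteases (SENPs)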
T1 sequence (P42574 whole entry): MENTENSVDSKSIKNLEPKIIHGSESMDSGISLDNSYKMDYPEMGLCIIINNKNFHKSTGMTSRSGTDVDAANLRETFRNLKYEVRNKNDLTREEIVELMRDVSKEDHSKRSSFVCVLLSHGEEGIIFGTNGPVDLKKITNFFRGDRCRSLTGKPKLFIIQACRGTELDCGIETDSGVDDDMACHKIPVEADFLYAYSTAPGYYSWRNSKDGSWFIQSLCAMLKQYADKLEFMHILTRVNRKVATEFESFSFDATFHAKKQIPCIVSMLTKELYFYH

[4] = biological target: T2, Sentrin-specific protease 6 (Homo sapiens, UniProt Q9GZR1); type: functional;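 also: Luminescence-based dose-response confirmatory assay of SENP6 inhibition, following up an ultra-high-throughput screen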
T2 sequence (Q9GZR1 whole entry): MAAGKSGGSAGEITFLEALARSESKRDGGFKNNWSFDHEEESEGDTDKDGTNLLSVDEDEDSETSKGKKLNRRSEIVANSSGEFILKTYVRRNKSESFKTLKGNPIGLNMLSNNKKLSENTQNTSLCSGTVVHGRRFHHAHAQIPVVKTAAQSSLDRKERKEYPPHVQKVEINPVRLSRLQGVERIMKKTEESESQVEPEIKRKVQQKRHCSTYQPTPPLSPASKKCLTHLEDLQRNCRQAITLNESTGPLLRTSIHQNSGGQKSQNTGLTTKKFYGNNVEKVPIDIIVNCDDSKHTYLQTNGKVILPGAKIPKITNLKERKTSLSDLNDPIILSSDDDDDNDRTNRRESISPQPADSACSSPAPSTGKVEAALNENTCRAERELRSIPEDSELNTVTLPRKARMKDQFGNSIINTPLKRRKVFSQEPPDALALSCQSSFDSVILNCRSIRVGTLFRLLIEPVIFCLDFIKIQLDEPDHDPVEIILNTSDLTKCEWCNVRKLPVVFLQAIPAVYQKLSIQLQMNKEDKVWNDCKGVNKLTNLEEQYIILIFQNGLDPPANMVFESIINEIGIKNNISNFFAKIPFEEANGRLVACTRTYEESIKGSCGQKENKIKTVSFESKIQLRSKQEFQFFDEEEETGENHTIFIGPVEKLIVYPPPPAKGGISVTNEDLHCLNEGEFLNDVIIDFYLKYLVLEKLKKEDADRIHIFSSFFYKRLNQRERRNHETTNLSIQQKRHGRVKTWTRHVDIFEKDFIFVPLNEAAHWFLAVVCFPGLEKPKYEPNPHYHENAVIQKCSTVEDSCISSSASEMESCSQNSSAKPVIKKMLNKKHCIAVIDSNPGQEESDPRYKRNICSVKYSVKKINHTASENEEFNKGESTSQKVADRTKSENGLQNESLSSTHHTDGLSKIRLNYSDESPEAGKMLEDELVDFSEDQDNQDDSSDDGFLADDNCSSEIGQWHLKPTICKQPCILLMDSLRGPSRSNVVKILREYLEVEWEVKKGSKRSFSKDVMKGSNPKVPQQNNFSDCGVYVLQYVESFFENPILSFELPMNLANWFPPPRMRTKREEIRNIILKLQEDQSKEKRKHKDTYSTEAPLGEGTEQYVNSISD

Beta Lactamase, sequence (Q932Y6 whole entry): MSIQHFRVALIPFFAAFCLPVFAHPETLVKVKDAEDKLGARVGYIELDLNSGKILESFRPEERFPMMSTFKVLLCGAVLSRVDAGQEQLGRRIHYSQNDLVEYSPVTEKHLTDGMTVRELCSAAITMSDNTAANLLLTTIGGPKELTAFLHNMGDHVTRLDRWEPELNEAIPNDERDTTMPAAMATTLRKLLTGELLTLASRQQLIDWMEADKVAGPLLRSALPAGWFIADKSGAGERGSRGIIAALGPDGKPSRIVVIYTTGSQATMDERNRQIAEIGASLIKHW
Bifunctional protein GlmU, sequence (P9WMN3 whole entry): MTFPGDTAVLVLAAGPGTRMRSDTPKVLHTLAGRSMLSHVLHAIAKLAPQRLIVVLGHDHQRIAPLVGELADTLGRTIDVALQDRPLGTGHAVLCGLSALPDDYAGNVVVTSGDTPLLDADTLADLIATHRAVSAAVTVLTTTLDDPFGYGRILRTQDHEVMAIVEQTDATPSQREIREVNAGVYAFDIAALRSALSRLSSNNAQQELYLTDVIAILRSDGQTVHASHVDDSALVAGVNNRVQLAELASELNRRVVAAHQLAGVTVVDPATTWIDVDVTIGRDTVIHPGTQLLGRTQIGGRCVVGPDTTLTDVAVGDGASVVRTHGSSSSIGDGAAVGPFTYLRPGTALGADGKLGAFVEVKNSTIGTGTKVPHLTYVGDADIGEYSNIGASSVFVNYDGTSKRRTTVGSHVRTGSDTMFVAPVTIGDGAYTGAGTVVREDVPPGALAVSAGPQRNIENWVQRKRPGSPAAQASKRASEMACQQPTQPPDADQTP

Row | Compound | IC50 (cells) | IC50 (Beta Lactamase) | EC50 [1] | IC50 [2] | AC50 [3] | IC50 (Caspase-3) | IC50 [4]
1 | O=C(Nc1ccccc1)c1nnsc1[S+]([O-])c1ccc(Cl)cc1 (centres undefined) | 13.1 µM (active) | 11.9 µM (inactive) | 4.31 µM (active) | 197 µM (active) | < 0.195 µM (active) |  | 
2 | CC1OC(Nc2cccc3ccccc23)C(O)C(O)C1O (centres undefined) |  |  |  |  |  | 9.4 µM (active) | 3.63 µM (active)
3 | O=C1C=C(Nc2ccccc2)c2ccccc2C1=O |  |  |  |  |  | 18.6 µM (active) | 5.8 µM (active)
